{"source": "patent US10106783B2", "about": "“HCV culture systems and direct-acting antiviral sensitivity” (Hvidovre Hospital, priority 2013, dated 2018)", "data": [{"tested_on": "J6/JFH1 (HCV genotype 2a recombinant)", "assay": "High-throughput DAA treatment assay of infected Huh7.5 cells, J6/JFH1 virus", "format": "cell-based", "conditions": "Hepatitis C virus, first-passage 2a J6/JFH1 stock, read-out: EC50 against J6/JFH1", "protocol": "(§1) Huh7.5 cells in 96-well culture plates were infected with 5′UTR-NS5A specific genotype(isolate) recombinants. For details on the 5-5A virus stocks see FIG. 3. J6/JFH1 was a first-passage stock with no mutations in the ORF. Cultures were treated with seven protease inhibitors and the NS5A inhibitor daclatasvir. Values are means of triplicates in the experiment with ±SEM.\n(§2) HCV DAAs were purchased from Acme Bioscience and dissolved in dimethyl sulfoxide (Sigma). High throughput treatment assays have been previously established. Concentration-response curves, EC50 values, and 95% confidence interval were calculated in GraphPad Prism 5 as described. Cytotoxicity assays to determine the non-cytotoxic dose range of the anti-HCV drugs were performed.\n(§3) Since no mutations appeared in the NS3 protease region in first-passage 5-5A recombinants, these culture viruses could be ideal models for studying the efficacy of PIs in a genotype-specific manner. We thus generated virus stocks from first-passage 1a(H77 and TN) and second-passage 3a(S52), 4a(ED43), 5a(SA13), and 6a(HK6a) 5-5A viruses (FIG. 3) for PI treatment experiments. Additionally, we generated a first-passage stock of 2a J6/JFH1. We confirmed that virus stocks used for treatment were without NS3 protease mutations (FIGS. 5-9). We tested virus sensitivity to the most advanced PIs: telaprevir (VX-950), boceprevir (SCH503034), asunaprevir (BMS-650032), simeprevir (TMC435350), vaniprevir (MK-7009), faldaprevir (BI201335), and MK-5172. […] The median effective concentration (EC50) representing the efficacy of drugs against the treated viruses was calculated from the concentration-response curves (FIGS. 2, 4 and 10). For a given inhibitor, EC50 fold-differences relative to J6/JFH1 were calculated for each genotype recombinant and used to describe whether a recombinant was more sensitive (fold-difference <1) or resistant (fold-difference >1) than J6/JFH1.", "units": {"EC50": "nM"}, "values": [{"smiles": "C=C[C@@H]1C[C@]1(NC(=O)[C@@H]1C[C@@H](Oc2ncc(OC)c3ccc(Cl)cc23)CN1C(=O)[C@@H](NC(=O)OC(C)(C)C)C(C)(C)C)C(=O)NS(=O)(=O)C1CC1", "note": "[asunaprevir]", "EC50": 159}, {"smiles": "CC(C)(C)NC(=O)N[C@H](C(=O)N1C[C@H]2[C@@H]([C@H]1C(=O)NC(CC1CCC1)C(=O)C(N)=O)C2(C)C)C(C)(C)C", "note": "(stereo partly drawn) [boceprevir]", "EC50": 589}, {"smiles": "COc1ccc2c(O[C@@H]3C[C@H]4C(=O)N[C@]5(C(=O)NS(=O)(=O)C6CC6)C[C@H]5/C=C\\CCCCN(C)C(=O)[C@@H]4C3)cc(-c3nc(C(C)C)cs3)nc2c1C", "note": "[simeprevir]", "EC50": 91}, {"smiles": "CCC[C@H](NC(=O)[C@@H]1[C@H]2CCC[C@H]2CN1C(=O)[C@@H](NC(=O)[C@@H](NC(=O)c1cnccn1)C1CCCCC1)C(C)(C)C)C(=O)C(=O)NC1CC1", "note": "[telaprevir]", "EC50": 493}]}, {"tested_on": "1a(TN) 5'UTR-NS5A recombinant virus", "assay": "High-throughput DAA treatment assay of infected Huh7.5 cells, 1a(TN)5-5A virus", "format": "cell-based, hepatitis C virus", "conditions": "1a(TN)5-5A virus more sensitive than J6/JFH1", "protocol": "as §1, §2, §3", "values": [{"smiles": "C=C[C@@H]1C[C@]1(NC(=O)[C@@H]1C[C@@H](Oc2ncc(OC)c3ccc(Cl)cc23)CN1C(=O)[C@@H](NC(=O)OC(C)(C)C)C(C)(C)C)C(=O)NS(=O)(=O)C1CC1", "note": "[asunaprevir]", "EC50 fold-difference relative to J6/JFH1, more sensitive": "2-3 fold"}]}, {"tested_on": "1a(TN) 5'UTR-NS5A recombinant virus", "assay": "High-throughput DAA treatment assay of infected Huh7.5 cells, 1a(TN)5-5A virus", "format": "cell-based, hepatitis C virus", "conditions": "1a(TN)5-5A virus, difference in sensitivity compared to J6/JFH1", "protocol": "as §1, §2, §3", "values": [{"smiles": "COc1ccc2c(O[C@@H]3C[C@H]4C(=O)N[C@]5(C(=O)NS(=O)(=O)C6CC6)C[C@H]5/C=C\\CCCCN(C)C(=O)[C@@H]4C3)cc(-c3nc(C(C)C)cs3)nc2c1C", "note": "[simeprevir]", "EC50 fold-difference from J6/JFH1": "less than 2 fold"}]}, {"tested_on": "5a(SA13) 5'UTR-NS5A recombinant virus", "assay": "High-throughput DAA treatment assay of infected Huh7.5 cells, 5a(SA13)5-5A virus", "format": "cell-based, hepatitis C virus", "conditions": "5a(SA13)5-5A virus more sensitive than J6/JFH1", "protocol": "as §1, §2, §3", "values": [{"smiles": "C=C[C@@H]1C[C@]1(NC(=O)[C@@H]1C[C@@H](Oc2ncc(OC)c3ccc(Cl)cc23)CN1C(=O)[C@@H](NC(=O)OC(C)(C)C)C(C)(C)C)C(=O)NS(=O)(=O)C1CC1", "note": "[asunaprevir]", "EC50 fold-difference relative to J6/JFH1, more sensitive": "2-3 fold"}]}, {"tested_on": "5a(SA13) 5'UTR-NS5A recombinant virus", "assay": "High-throughput DAA treatment assay of infected Huh7.5 cells, 5a(SA13)5-5A virus", "format": "cell-based, hepatitis C virus", "conditions": "5a(SA13)5-5A virus, difference in sensitivity compared to J6/JFH1", "protocol": "as §1, §2, §3", "values": [{"smiles": "COc1ccc2c(O[C@@H]3C[C@H]4C(=O)N[C@]5(C(=O)NS(=O)(=O)C6CC6)C[C@H]5/C=C\\CCCCN(C)C(=O)[C@@H]4C3)cc(-c3nc(C(C)C)cs3)nc2c1C", "note": "[simeprevir]", "EC50 fold-difference from J6/JFH1": "less than 2 fold"}]}, {"tested_on": "HCV genotype 1-6 recombinant viruses", "assay": "High-throughput DAA treatment assay of infected Huh7.5 cells, whole panel of genotype 1-6 recombinant viruses", "format": "cell-based, hepatitis C virus", "conditions": "infected Huh7.5 cells, concentration-response", "protocol": "as §1, §2, §3", "values": [{"smiles": "C=C[C@@H]1C[C@]1(NC(=O)[C@@H]1C[C@@H](Oc2ncc(OC)c3ccc(Cl)cc23)CN1C(=O)[C@@H](NC(=O)OC(C)(C)C)C(C)(C)C)C(=O)NS(=O)(=O)C1CC1", "note": "[asunaprevir]", "Inhibition of genotype 1-6 recombinant viruses": "concentration-dependently inhibited"}, {"smiles": "COc1ccc2c(O[C@@H]3C[C@H]4C(=O)N[C@]5(C(=O)NS(=O)(=O)C6CC6)C[C@H]5/C=C\\CCCCN(C)C(=O)[C@@H]4C3)cc(-c3nc(C(C)C)cs3)nc2c1C", "note": "[simeprevir]", "Inhibition of genotype 1-6 recombinant viruses": "concentration-dependently inhibited"}]}, {"tested_on": "6a(HK6a) 5'UTR-NS5A recombinant virus", "assay": "High-throughput DAA treatment assay of infected Huh7.5 cells, 6a(HK6a)5-5A virus", "format": "cell-based, hepatitis C virus", "conditions": "6a(HK6a)5-5A virus more sensitive than J6/JFH1", "protocol": "as §1, §2, §3", "values": [{"smiles": "C=C[C@@H]1C[C@]1(NC(=O)[C@@H]1C[C@@H](Oc2ncc(OC)c3ccc(Cl)cc23)CN1C(=O)[C@@H](NC(=O)OC(C)(C)C)C(C)(C)C)C(=O)NS(=O)(=O)C1CC1", "note": "[asunaprevir]", "EC50 fold-difference relative to J6/JFH1, more sensitive": "2-3 fold"}, {"smiles": "CC(C)(C)NC(=O)N[C@H](C(=O)N1C[C@H]2[C@@H]([C@H]1C(=O)NC(CC1CCC1)C(=O)C(N)=O)C2(C)C)C(C)(C)C", "note": "(stereo partly drawn) [boceprevir]", "EC50 fold-difference relative to J6/JFH1, more sensitive": "~4 fold"}, {"smiles": "CCC[C@H](NC(=O)[C@@H]1[C@H]2CCC[C@H]2CN1C(=O)[C@@H](NC(=O)[C@@H](NC(=O)c1cnccn1)C1CCCCC1)C(C)(C)C)C(=O)C(=O)NC1CC1", "note": "[telaprevir]", "EC50 fold-difference relative to J6/JFH1, more sensitive": "~4 fold"}]}, {"tested_on": "6a(HK6a) 5'UTR-NS5A recombinant virus", "assay": "High-throughput DAA treatment assay of infected Huh7.5 cells, 6a(HK6a)5-5A virus", "format": "cell-based, hepatitis C virus", "conditions": "6a(HK6a)5-5A virus, difference in sensitivity compared to J6/JFH1", "protocol": "as §1, §2, §3", "values": [{"smiles": "COc1ccc2c(O[C@@H]3C[C@H]4C(=O)N[C@]5(C(=O)NS(=O)(=O)C6CC6)C[C@H]5/C=C\\CCCCN(C)C(=O)[C@@H]4C3)cc(-c3nc(C(C)C)cs3)nc2c1C", "note": "[simeprevir]", "EC50 fold-difference from J6/JFH1": "less than 2 fold"}]}, {"tested_on": "4a(ED43) 5'UTR-NS5A recombinant virus", "assay": "High-throughput DAA treatment assay of infected Huh7.5 cells, 4a(ED43)5-5A virus", "format": "cell-based, hepatitis C virus", "conditions": "4a(ED43)5-5A virus more resistant than J6/JFH1", "protocol": "as §1, §2, §3", "units": {"EC50 fold-difference relative to J6/JFH1, more resistant": "fold"}, "values": [{"smiles": "CC(C)(C)NC(=O)N[C@H](C(=O)N1C[C@H]2[C@@H]([C@H]1C(=O)NC(CC1CCC1)C(=O)C(N)=O)C2(C)C)C(C)(C)C", "note": "(stereo partly drawn) [boceprevir]", "EC50 fold-difference relative to J6/JFH1, more resistant": "~2"}, {"smiles": "CCC[C@H](NC(=O)[C@@H]1[C@H]2CCC[C@H]2CN1C(=O)[C@@H](NC(=O)[C@@H](NC(=O)c1cnccn1)C1CCCCC1)C(C)(C)C)C(=O)C(=O)NC1CC1", "note": "[telaprevir]", "EC50 fold-difference relative to J6/JFH1, more resistant": "~4"}]}, {"tested_on": "4a(ED43) 5'UTR-NS5A recombinant virus", "assay": "High-throughput DAA treatment assay of infected Huh7.5 cells, 4a(ED43)5-5A virus", "format": "cell-based, hepatitis C virus", "conditions": "4a(ED43)5-5A virus more sensitive than J6/JFH1", "protocol": "as §1, §2, §3", "units": {"EC50 fold-difference relative to J6/JFH1, more sensitive": "fold"}, "values": [{"smiles": "C=C[C@@H]1C[C@]1(NC(=O)[C@@H]1C[C@@H](Oc2ncc(OC)c3ccc(Cl)cc23)CN1C(=O)[C@@H](NC(=O)OC(C)(C)C)C(C)(C)C)C(=O)NS(=O)(=O)C1CC1", "note": "[asunaprevir]", "EC50 fold-difference relative to J6/JFH1, more sensitive": "~5"}, {"smiles": "COc1ccc2c(O[C@@H]3C[C@H]4C(=O)N[C@]5(C(=O)NS(=O)(=O)C6CC6)C[C@H]5/C=C\\CCCCN(C)C(=O)[C@@H]4C3)cc(-c3nc(C(C)C)cs3)nc2c1C", "note": "[simeprevir]", "EC50 fold-difference relative to J6/JFH1, more sensitive": "~10"}]}, {"tested_on": "3a(S52) 5'UTR-NS5A recombinant virus", "assay": "High-throughput DAA treatment assay of infected Huh7.5 cells, 3a(S52)5-5A virus", "format": "cell-based, hepatitis C virus", "conditions": "3a(S52)5-5A virus more resistant (less sensitive) than J6/JFH1", "protocol": "as §1, §2, §3", "units": {"EC50 fold-difference relative to J6/JFH1, more resistant": "fold"}, "values": [{"smiles": "C=C[C@@H]1C[C@]1(NC(=O)[C@@H]1C[C@@H](Oc2ncc(OC)c3ccc(Cl)cc23)CN1C(=O)[C@@H](NC(=O)OC(C)(C)C)C(C)(C)C)C(=O)NS(=O)(=O)C1CC1", "note": "[asunaprevir]", "EC50 fold-difference relative to J6/JFH1, more resistant": "~13"}, {"smiles": "CC(C)(C)NC(=O)N[C@H](C(=O)N1C[C@H]2[C@@H]([C@H]1C(=O)NC(CC1CCC1)C(=O)C(N)=O)C2(C)C)C(C)(C)C", "note": "(stereo partly drawn) [boceprevir]", "EC50 fold-difference relative to J6/JFH1, more resistant": "~2"}, {"smiles": "COc1ccc2c(O[C@@H]3C[C@H]4C(=O)N[C@]5(C(=O)NS(=O)(=O)C6CC6)C[C@H]5/C=C\\CCCCN(C)C(=O)[C@@H]4C3)cc(-c3nc(C(C)C)cs3)nc2c1C", "note": "[simeprevir]", "EC50 fold-difference relative to J6/JFH1, more resistant": "~27"}, {"smiles": "CCC[C@H](NC(=O)[C@@H]1[C@H]2CCC[C@H]2CN1C(=O)[C@@H](NC(=O)[C@@H](NC(=O)c1cnccn1)C1CCCCC1)C(C)(C)C)C(=O)C(=O)NC1CC1", "note": "[telaprevir]", "EC50 fold-difference relative to J6/JFH1, more resistant": "~4"}]}, {"tested_on": "1a(H77) 5'UTR-NS5A recombinant virus", "assay": "High-throughput DAA treatment assay of infected Huh7.5 cells, 1a(H77)5-5A virus", "format": "cell-based, hepatitis C virus", "conditions": "1a(H77)5-5A virus more sensitive than J6/JFH1", "protocol": "as §1, §2, §3", "units": {"EC50 fold-difference relative to J6/JFH1, more sensitive": "fold"}, "values": [{"smiles": "C=C[C@@H]1C[C@]1(NC(=O)[C@@H]1C[C@@H](Oc2ncc(OC)c3ccc(Cl)cc23)CN1C(=O)[C@@H](NC(=O)OC(C)(C)C)C(C)(C)C)C(=O)NS(=O)(=O)C1CC1", "note": "[asunaprevir]", "EC50 fold-difference relative to J6/JFH1, more sensitive": "~5"}, {"smiles": "COc1ccc2c(O[C@@H]3C[C@H]4C(=O)N[C@]5(C(=O)NS(=O)(=O)C6CC6)C[C@H]5/C=C\\CCCCN(C)C(=O)[C@@H]4C3)cc(-c3nc(C(C)C)cs3)nc2c1C", "note": "[simeprevir]", "EC50 fold-difference relative to J6/JFH1, more sensitive": "~10"}]}]}
